# From patent publication US5593970A, “Heterocyclic anthracycline analogs” (priority 1994, dated 1997)
# Where “and” joins values, the source holds several entries; their conditions need not be identical. Identical values can stand only once. Counter-ions that a name gives are not always drawn. Like-named read-outs stand apart in the source and are kept apart here.
# How the values were obtained:
# Assay in all cases: Microculture tetrazolium assay
# Type in all cases: cell-based
# [1] = tested on: SKOV3
# [2] = tested on: HT29
# [3] = tested on: SKVLB; details: for VLB/OV3: IC50 ratio SKVLB/SKOV3; for IC50: SKVLB
# [4] = tested on: T47D
# [5] = tested on: LOX
# [6] = Homo sapiens, SK-OV-3, SKOV3, read-out: IC50
# [7] = Homo sapiens, HT-29, HT29, read-out: IC50
Compound,"IC50 [1, 6] [µM]","IC50 [2, 7] [µM]",VLB/OV3 [3],IC50 ([3]; read-out: IC50),IC50 ([5]; read-out: IC50) [µM],further results
"CC(=O)CC1CC2=C(C(=O)c3cc4ccccc4c(O)c3C2=O)C(O[C@H]2C[C@H](N)[C@H](O)[C@H](C)O2)O1 (mixture of isomers) [BCH-2111, (1'S,1R,3S) and (1'S,1S,3R)-3-6-hydroxy-1-(2',3',6'-trideoxy-3'-amino-4'-hydroxy-L-lyxohexopyranose-5,12-dioxo-3,4,5,12-tetrahydroanthraceno[2,3-c]pyran-3-yl)propanone hydrochloride]",2.14,0.954,5.51,11.8 µM,,"IC50 ([4]; Homo sapiens, read-out: IC50): 2.42 µM"
"CC(=O)[C@@H]1CC2=C(C(=O)c3cc4ccccc4c(O)c3C2=O)[C@@H](O[C@H]2C[C@H](NC(=O)C(F)(F)F)[C@H](O)[C@H](C)O2)O1 [BCH-730, (1S',1R,3S)-Methyl-(6-hydroxy-1-(3'-trifluoroacyldaunosamine)-5,12-dioxo-3,4,5,12-tetrahydroanthraceno[2,3-C]pyran-3-yl) ketone]",3.52,,,2.01 µM and 2.88 µM,1.66,"IC50 [5]: 1.78 µM; IC50 ([4]; Homo sapiens, read-out: IC50): 3.62 µM; IC50 ([4]; read-out: IC50): 3.08 µM"
CC(=O)C1Cc2c(O)c3c(c(O)c2C(O[C@H]2C[C@H](N4CCOCC4)[C@H](O)[C@H](C)O2)O1)C(=O)c1ccccc1C3=O (stereo partly drawn) [BCH-1193],,,2.46,,,IC50 ([1]; SKOV3): 1.95 µM; IC50 ([2]; HT29): 1.04 µM and 0.94 µM; IC50 [3]: 4.79 µM and 4.92 µM; IC50 [4]: 2.57 µM and 4.16 µM
CC(=O)[C@@H]1Cc2c(O)c3c(c(O)c2[C@@H](O[C@@H]2O[C@@H](C)[C@@H](O)[C@@H](O)C2I)O1)C(=O)c1ccccc1C3=O (stereo partly drawn) [BCH-1672],0.343,1.67,2.89,0.99 µM,0.232,
"C[C@@H]1O[C@@H](O[C@H]2O[C@H](C(C)(F)F)CC3=C2C(=O)c2cc4ccccc4c(O)c2C3=O)C[C@H](NC(=O)C(F)(F)F)[C@@H]1O [BCH-1676, (1'S,1R,3S)-5,12-dioxo-3-(1,1-difluoroethyl)-6-hydroxy-1-(2',3',6'-trideoxy-3'-trifluoroacetamido-L-lyxohexopyranose)-3,4,5,12-tetrahydroanthraceno-[2,3-c]-pyran]",2.46,3.05,1.63,4.01 µM,2.31,
COP(=O)(CC(=O)[C@@H]1CC2=C(C(=O)c3cc4ccccc4c(O)c3C2=O)[C@@H](O[C@H]2C[C@H](NC(=O)C(F)(F)F)[C@H](O)[C@H](C)O2)O1)OC [BCH-1678],,,2.54,,,"IC50 ([1]; Homo sapiens, SK-OV-3, SKOV3): 5.36 µM; IC50 ([2]; Homo sapiens, HT-29, HT29): 5.65 µM; IC50 [5]: 3.77 µM; IC50 [3]: 13.6 µM"
COP(=O)(CC(=O)[C@H]1CC2=C(C(=O)c3cc4ccccc4c(O)c3C2=O)[C@H](O[C@H]2C[C@H](NC(=O)C(F)(F)F)[C@H](O)[C@H](C)O2)O1)OC [BCH-1679],,,,,,"IC50 ([1]; Homo sapiens, SK-OV-3, SKOV3): 1.2 µM; IC50 ([2]; Homo sapiens, HT-29, HT29): 1.1 µM; IC50 [5]: 1.1 µM; IC50 [3]: 3.6 µM"
CC(=O)[C@H]1CC2=C(C(=O)c3cc4ccccc4c(O)c3C2=O)[C@H](O[C@@H]2O[C@@H](C)[C@@H](O)[C@@H](O)C2I)O1 (stereo partly drawn) [BCH-1681],0.914,0.123,0.73,0.671 µM,0.454,
CC(NC(=O)C(F)(F)F)C1Cc2c(O)c3c(c(O)c2C(O[C@H]2C[C@H](O)[C@H](O)[C@H](C)O2)O1)C(=O)c1ccccc1C3=O (stereo partly drawn) [BCH-1682],24.7,25.8,,> 100 µM,16.4,
"CC(N)C1Cc2c(O)c3c(c(O)c2C(O[C@H]2C[C@H](O)[C@H](O)[C@H](C)O2)O1)C(=O)c1ccccc1C3=O (stereo partly drawn) [BCH-1683, (1'S ,1S,3R)-3(aminoethyl)-5,12-dihydroxyl-1(2,3,6-trideoxy-3,4-dihydroxy-L-lyxohexopyranose)-6,11-dioxo-3,4,6,11-tetrahydro-1H-anthra[2,3-c]pyran hydrochloride]",3.07,1.35,3.71,11.4 µM,2.29,
"CC(=O)[C@@H]1Cc2c(O)c3c(c(O)c2[C@@H](O[C@H]2O[C@H](CO)[C@@H](O)[C@H](O)[C@H]2N)O1)C(=O)c1ccccc1C3=O [BCH-1685, (1'R, 1R,3S)-3-aceto-5,12-dihydroxy-1(2-deoxy-2-amino-D-glucopyranose)-6,11-dioxo-3,4,6,11-tetrahydro-1H-anthra-[2,3-c]pyran]",0.81,1.93,65.68,53.2 µM,0.683,
"C=CC[C@H]1CC2=C(C(=O)c3cc4ccccc4c(O)c3C2=O)[C@H](O[C@H]2C[C@H](NC(=O)C(F)(F)F)[C@H](O)[C@H](C)O2)O1 [BCH-1686, (1'S,1S,3S)-3-(6-hydroxy-1-(2',3',6'-trideoxy-3'-trifluoroacetamido-4'-hydroxy-L-lyxohexopyranose)-5,12-dioxo-3,4,5,12-tetrahydroanthraceno-[2,3-C]pyran-3-yl)propene]",0.972,1.84,2.60,2.53 µM,0.684,
"C=CC[C@@H]1CC2=C(C(=O)c3cc4ccccc4c(O)c3C2=O)[C@@H](O[C@H]2C[C@H](NC(=O)C(F)(F)F)[C@H](O)[C@H](C)O2)O1 [BCH-1687, (1S,1R,3R)-3-(6-hydroxy-1-(2',3',6'-trideoxy-3'-trifluoroacetamido-4'-hydroxy-L-lyxohexopyranose)-5,12-dioxo-3,4,5,12-tetrahydroanthraceno-[2,3-c]pyran-3-yl)propene]",0.791,1.24,2.35,1.86 µM,0.706,
"C=CC[C@@H]1CC2=C(C(=O)c3cc4ccccc4c(O)c3C2=O)[C@@H](O[C@H]2C[C@H](N)[C@H](O)[C@H](C)O2)O1 [BCH-2005, (1'S,1R,3R)-3-(6-hydroxy-1-(2',3',6'-trideoxy-3'-amino-4'-hydroxy-L-lyxohexopyranose)-5,12-dioxo-3,4,5,12-tetrahydroanthraceno-[2,3-c]pyran-3-yl)propene hydrochloride]",0.341,0.245,1.07,0.364 µM,0.138,
"C=CC[C@@H]1Cc2c(O)c3c(c(O)c2[C@@H](O[C@H]2C[C@H](NC(=O)C(F)(F)F)[C@H](O)[C@H](C)O2)O1)C(=O)c1ccccc1C3=O [BCH-2108, (1'S,1R,3R)-3-(5,12-dihydroxy-1-(2',3',6'-trideoxy-3'-trifluoroacetamido-4'-hydroxy-L-lyxohexopyranose)-6,11-dioxo-3,4,5,12-tetrahydroanthraceno-[2,3-c]pyran-3-yl)propene]",11.4,8.52,1.25,14.3 µM,,"IC50 ([4]; Homo sapiens, read-out: IC50): 11.9 µM"
C=CC[C@H]1Cc2c(O)c3c(c(O)c2[C@H](O[C@H]2C[C@H](NC(=O)NCCCl)[C@H](O)[C@H](C)O2)O1)C(=O)c1ccccc1C3=O [BCH-2110],,,1.14,,,"IC50 ([1]; Homo sapiens, SK-OV-3, SKOV3): 2.48 µM; IC50 ([2]; Homo sapiens, HT-29, HT29): 1.51 µM; IC50 [3]: 2.83 µM; IC50 ([4]; Homo sapiens): 2.46 µM"
"CC(=O)C1Cc2c(O)c3c(c(O)c2C(OC2CCC(NC(=O)N(CCCl)N=O)CC2)O1)C(=O)c1ccccc1C3=O [BCH-2116, (1R,3S) and (1S ,3R)-3-aceto-6,11-dioxo-5,12-dihydroxy-1(4-chloroethylnitrosoureido-cyclohexyl-oxy)-3,4,6,11-tetrahydro-1H-anthra[2,3-C]pyran]",,,2.68,,,"IC50 ([1]; Homo sapiens, SK-OV-3, SKOV3): 18.7 µM; IC50 ([2]; Homo sapiens, HT-29, HT29): 23.3 µM; IC50 [3]: 50.1 µM; IC50 ([4]; Homo sapiens): 22.7 µM"
